# Test system: allergen response (wheal size)
# Assay: Skin prick test (SPT) in healthy atopic subjects
# Format: in vivo, human
# Conditions: 10 mg q.d.
# Experimental: The ability of compound (I) to inhibit a defined allergen response has been evaluated by means of the skin prick test (SPT) in healthy atopic subjects in the MAD study part of the first in human study. SPT was performed prior to dosing (at screening, baseline and pre-dose on Day 1) and at different time points after the first dose (Day 1) and after 11 days of once daily dosing (Day 12).
smiles,measurement,value
"C=CC(=O)N(C)CCOc1c(N)ncnc1-c1cc(F)cc(NC(=O)c2ccc(C3CC3)cc2F)c1C [Compound (I), N-(3-(6-Amino-5-(2-(N-methylacrylamido)ethoxy)pyrimidin-4-yl)-5-fluoro-2-methylphenyl)-4-cyclopropyl-2-fluorobenzamide]",inhibition of wheal size in SPT,minimal inhibition
